For data set [1], the target named is Human Carbonic Anhydrase II (Homo sapiens, UniProt P00918). Nature of the data set: Carbonic anhydrase inhibition (CO2 hydration, time to pH drop). To be noted: read-out: CAII IC50. Type of data set: biochemical. As to the method:
(§1) b) Carbonic Anhydrase Inhibition—Test Principle and Test Description:
(§2) Carbonic anhydrases catalyze the CO2 hydration.
(§3) Test preparation: A constant CO2 stream is directed through a buffer that was mixed with carbonic anhydrase I or carbonic anhydrase II. The measuring parameter is the time that is required to drop the pH within defined limits. This parameter reflects the formation of H2CO3 in the medium. IC50-Inhibiting values are determined by test substances being pipetted into the test preparation.

Data set [2] has as its target Human Carbonic Anhydrase I (Homo sapiens, UniProt P00915). Described as above. It counts as biochemical. To be noted: read-out: CAI IC50. As to the method:
as §1, §2, §3

Data set [3] can be described thus: Plasma level of released mother estrogen after oral administration in ovariectomized rats. Conditions: 1x oral 1 mg/animal, compared with oral 8-vinyl-E2. Type of data set: in vivo, Wistar rats. As to the method:
Adult Wistar rats were ovariectomized 14 days after this operation for the study of the substances according to the invention. A treatment extended over 3 days (days 1-3), and on day 4, the animals were sacrificed. Then, the recovery of plasma for hormone-analytical and clinical-chemical determinations and the determination of uterus weights were carried out. In satellite tests, correspondingly conditioned animals were sacrificed and samples were taken of their blood after one-time treatment and at other times (see FIGS. 1 and 2).

A value given as a limit tells only on which side of the number the result lay.

One may read the IC50 as the concentration needed to halve the response being measured.

Sequence of Human Carbonic Anhydrase I (P00915 whole entry): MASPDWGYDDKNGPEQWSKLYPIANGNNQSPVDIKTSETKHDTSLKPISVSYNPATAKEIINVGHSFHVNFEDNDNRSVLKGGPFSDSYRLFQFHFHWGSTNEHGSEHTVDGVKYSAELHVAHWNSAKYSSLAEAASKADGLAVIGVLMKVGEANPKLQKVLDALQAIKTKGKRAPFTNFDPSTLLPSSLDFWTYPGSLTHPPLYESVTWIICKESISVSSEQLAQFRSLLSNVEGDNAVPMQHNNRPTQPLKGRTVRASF

As for `C=C[C@@]12CCc3cc(O)ccc3[C@H]1CC[C@]1(C)[C@@H](OC(=O)c3ccccc3)CC[C@H]12` [(3′-Hydroxy-8′beta-vinyl-estra-1′,3′,5′(10′)-trien-17′beta-yl)-benzoat], the IC50 in data set [1] is greater than 10000 nM; in data set [2], greater than 10 µM.
Consider `C[C@]12CC[C@@H]3c4ccc(OS(N)(=O)=O)cc4CC[C@H]3[C@@H]1CC[C@@H]2O` [Estradiol-3-sulfamate], for which the IC50 was determined as 21.6 ± 1.5 nM in data set [1] and 0.157 ± 0.0106 µM in data set [2].
Turning to `C=C[C@@]12CCc3cc(O)ccc3[C@H]1CC[C@]1(C)[C@@H](OC(=O)c3cccc(S(N)(=O)=O)c3)CC[C@H]12` [Example 1, (3′-Hydroxy-8′-vinylestra-1′,3′,5′(10′)-trien-17′β-yl)-3-sulfamoyl benzoate], the concentration for half-maximal inhibition (IC50) in data set [1] amounted to 570 nM; in data set [2], 3.9 µM. The “Increase of the 8β-vinylestra-1,3,5(10)-triene-3,17β-diol level (8-vinyl-E2) in the plasma” value in data set [3] is on record as “Considerably greater increase”.
For the compound `C=C[C@@]12CCc3cc(O)ccc3[C@H]1CC[C@]1(C)[C@@H](OC(=O)c3ccc(S(N)(=O)=O)cc3)CC[C@H]12` [Example 2, (3′-Hydroxy-8′-vinylestra-1′,3′,5′(10′)-trien-17′β-yl)-4-sulfamoyl benzoate], in data set [3], the “Increase of the 8β-vinylestra-1,3,5(10)-triene-3,17β-diol level (8-vinyl-E2) in the plasma” value was “greater increase”.
